Measured values: patent US20260041677A1, “COMPOSITIONS AND METHODS FOR TREATING ADENOID CYSTIC CARCINOMA” (ELEVAR THERAPEUTICS, INC., priority 2022, published 2026)

Experiments:
[1] = Phase 2 study of rivoceranib in R/M ACC: safety, adverse events, dose modifications; format: in vivo, human
From the text: Overall design: An ongoing Phase 2, multicenter, open-label, single-arm study was designed to evaluate the efficacy and safety of rivoceranib in patients with recurrent or metastatic (R/M) adenoid cystic carcinoma (ACC) of all anatomic sites of origin. The study was composed of an initial screening phase (up to 28 days), a treatment phase, and a follow-up phase.
(§1) Objectives: Primary objectives were to evaluate safety & tolerability, efficacy by objective response rate (ORR), best overall response (BOR), time to response, duration of response, disease control rate, and duration of disease control. Secondary objectives were to evaluate efficacy as measured by overall survival, progression-free survival and event-free survival. The primary efficacy endpoint was the ORR, defined as the proportion of patients who achieved confirmed complete response (CR) or partial response (PR) per Response Evaluation Criteria in Solid Tumors (RECIST) Version 1.1 (V1.1). The secondary efficacy endpoints were duration of response (DoR) assessed by the investigator and a blinded independent review committee (BIRC), progression-free survival (PFS) assessed at 6 months, 12 months, and 2 years by investigator and BIRC, Time to Progression (TTP) assessed by investigator and BIRC, and overall survival (OS) assessed at 1 and 2 years. Exploratory efficacy endpoints include ORR per CHOI response criteria (based on the journal article, Choi et al., Correlation of computed tomography and positron emission tomography in patients with metastatic gastrointestinal stromal tumor treated at a single institution with imatinib mesylate: proposal of new computed tomography response criteria. J Clin Oncol. 2007; 25(13): 1753-1759) by a blinded independent review […] (BIRC) and disease control rate (DCR) per RECIST V1.1 by Investigator and BIRC. Except for CHOI response criteria, all response endpoints were assessed per RECIST V1.1 by Investigator and BIRC.
Dose determination: Enrolled patients initiated treatment with rivoceranib 700 mg daily (QD). Up to 3 levels of dose reduction for toxicity were permitted: 500 mg QD, 300 mg QD and 200 mg QD. Patients received treatment until disease progression, unacceptable toxicity, death or withdrawal of consent to treatment. Patients deriving benefit were permitted to continue treatment with rivoceranib beyond disease progression. After discontinuation of study treatment, patients were to be followed for survival (and initiation of new anticancer therapy) for 24 months. Patients were dosed with rivoceranib 700 mg orally daily (QD) in 28-day cycles. Treatment with rivoceranib was continued until disease progression, unacceptable toxicity, death, or withdrawal of consent.
The median duration of treatment was 31.07 weeks (range: 0.6 to 103.0). The median time-averaged daily dose was 397.6 mg/day, which was […] of initial daily dose of 700 mg/day. Overall, 85% of patients required 1 or more dose modifications (reduction or interruption) due to an adverse event (AE).
Safety Summary: Rivoceranib was generally well-tolerated with the toxicity profile as expected based on other studies of rivoceranib in patients with solid tumors, and consistent with the class effect of angiogenesis inhibitors. […] Four patients experienced a fatal adverse event. These events consisted of epistaxis in two patients and acute respiratory failure in two patients. […] The median time to each of these dose reductions was 4.00, 7.71 and 16.00 weeks, respectively. The median duration of treatment was 31.1 weeks (range, 0.6-103.0). The median actual dose intensity was 421.0 mg/day. The relative dose intensity was 60.1%. Overall, 68 patients required one or more dose modifications (reduction or interruption) due to an adverse event. The median time to first dose reduction was 4.1 weeks (range, 1-40).

[2] = tested on: recurrent or metastatic (R/M) adenoid cystic carcinoma (ACC); assay: Phase 2 study of rivoceranib in R/M ACC: overall survival, intention-to-treat population; format: in vivo, human; settings: 700 mg QD start
From the text: as §1
The OS was calculated by Overall Survival (months)=12*(Date of death−First dose of rivoceranib+1)/365.25. Median OS were not evaluable. In general, OS rates at 6, 9 and 12 months were similar regardless of prior VEGFR inhibitor treatment or prior systemic anticancer treatment.

R/M ACC = settings: RECIST V1.1; 500 mg QD; 68 patients, head and neck R/M ACC; cited from earlier work

With `N#CC1(c2ccc(NC(=O)c3cccnc3NCc3ccncc3)cc2)CCCC1` [Rivoceranib, N-[4-(1-cyanocyclopentyl)phenyl]-2-{[(pyridin-4-yl)methyl]amino}pyridine-3-carboxamide] the “fatal adverse event: acute respiratory failure” value ([1]; N = 80, 700 mg QD start) was “two”, the “fatal adverse event: epistaxis” value ([1]; N = 80, 700 mg QD start) was “two” and the “patients who experienced a fatal adverse event” value ([1]; N = 80, 700 mg QD start) was “Four”. For the same compound, the “Median time to dose reduction to 300 mg QD” value ([1]; human, in vivo) was 7.71 weeks, the “Median time to dose reduction to 500 mg QD” value ([1]; human, in vivo) was 4.00 weeks and the “Number of Subjects with Dose Interruption (n, %)” value ([1]; human, in vivo) was “(83.8) %”. The “Number of Subjects with Dose Modification (n, %)” value ([1]; human, in vivo) was “(88.8) %”, the “Treatment interruptions due to adverse events, patients” value ([1]; human, in vivo) was 86.3% and the “Treatment reductions due to adverse events, patients” value ([1]; human, in vivo) was 48.8%. The “median time to first dose reduction” value ([1]; human, in vivo) was 4.1 weeks, the “patients dose reduced from 700 mg QD to 500 mg QD” value ([1]; human, in vivo) was 80.0% and the “patients dose reduced to 200 mg QD” value ([1]; human, in vivo) was 32.5%. For the same compound, the “patients dose reduced to 300 mg QD” value ([1]; human, in vivo) was 51.3%, the “OS rate at 6 months” value ([2]; ITT population) was 94.7% and the “OS rate at 9 months” value ([2]; ITT population) was 83.5%. The “OS landmark 12-months, % (95% CI)” value ([2]; ITT, Total N = 80) was 74.5 (62.5-83.1) %, the “OS landmark 18-months, % (95% CI)” value ([2]; ITT, Total N = 80) was 61.7 (48.3-72.5) % and the “OS landmark 12-months, % (95% CI)” value ([2]; ITT, VEGFRi-naïve N = 66) was 77.4 (64.2-86.2) %. The “OS landmark 18-months, % (95% CI)” value ([2]; ITT, VEGFRi-naïve N = 66) was 66.0 (51.1-77.3) %, the “Median OS” value ([2]; ITT, VEGFRi-treated N = 14) was 17.5 months and the “OS landmark 12-months, %” value ([2]; ITT, VEGFRi-treated N = 14) was 62.9%. For the same compound, the “OS landmark 18-months, %” value ([2]; ITT, VEGFRi-treated N = 14) was 45.8%, the “6-month PFS” value (R/M ACC) was 92.3% and the ORR (R/M ACC) was 46.2%. For the same compound, the “median DOR” value (R/M ACC) was 17.7 months.
